Laboratory results reported in patent publication US6770597B2, “Benzohydrazide derivatives as herbicides and desiccant compositions containing them” (Ishihara Sangyo Kaisha, Ltd., priority 2002, dated 2004).

What was measured:
Format in all cases: in vivo
[1] = system: field corn (Zea mays L., var. Dekalb 535, CORN); assay: Greenhouse herbicide screen, post-emerge application, crop damage rating; conditions: POST emergent, 14 days after application, scale 0-100
Excerpt: (§1) A standard greenhouse herbicide activity screening system was used to evaluate the herbicidal efficacy and crop safety of these test compounds. Seven broadleaf weed species including redroot pigweed (Amaranthus retrofiexus, AMARE), velvetleaf (Abutilon theophrasti, ABUTH), sicklepod (Cassia obtusifolia, CASOB), ivyleaf morningglory (Ipomoea hederacea, IPOHE), lambsquarters (Chenopodium album, CHEAL), common ragweed (Ambrosia artemisiifolia L., AMBEL), and cocklebur (Xanthium strumarium, XANST) were used as test species. Four grass weed species including green foxtail (Setaria viridis, SETVI), barnyardgrass (Echinochloa crus-galli, ECHCG), johnsongrass (Sorghum halepense, SORHA), and large crabgrass (Digitaria sanguinalis, DIGSA) were also used. In addition, four crop species, field corn (Zea mays L., var. Dekalb 535, CORN), soybean (Glycine max L., var. Pella 86, SOY), upland rice (Oryza sp., var.Cocodrie, RICE) and wheat (Triticum aestivum L.) were included.
(§2) All plants were grown in 10 cm square plastic pots which were filled with a sandy loam soil mix. For pre-emerge tests, seeds were planted one day prior to application of the test compounds. For post-emerge tests, seeds were planted 8-21 days prior to the test to allow emergence and good foliage development prior to application of the test substances. At the time of the post-emerge application, plants of all species were usually at the 2-3 leaf stage of development.
(§3) All test compounds were dissolved in acetone and applied to the test units in a volume of 187 l/ha. Test materials were applied at rates ranging from 15 g ai/ha to 1000 g ai/ha using a track sprayer equipped with a TJ8001E even flow flat fan spray nozzle. Plants were arranged on a shelf so that the top of the canopy (post-emerge) or top of the soil surface (pre-emerge) was 40-45 cm below the nozzle. Pressurized air was used to force the test solution through the nozzle as it was mechanically advanced (via electrically driven chain drive) over the top of all test plants/pots. This application simulates a typical commercial field herbicide application.
(§4) Pre-emergence tests were top watered immediately after treatment to incorporate the test materials, then routinely top-watered for normal growth. Post-emerge test units were always bottom-watered.
(§5) At 14 days after application of the test materials, phytotoxicity ratings were recorded. A rating scale of 0-100 was used as previously described in Research Methods in Weed Science, 2nd edition, B. Truelove, Ed., Southern Weed Science Society, Auburn University, Auburn, Ala., 1977. Briefly, “0” corresponds to no damage and “100” corresponds to complete death of all plants in the test unit. This scale was used both to determine efficacy against weed species and damage to crop species. Herbicide activity data for various compounds of this invention, which are shown by compound No. in Tables 1-12, are shown in Tables 13 and 14.

[2] = system: upland rice (Oryza sp., var.Cocodrie, RICE); assay: as above; conditions: POST emergent, 14 days after application, scale 0-100
Excerpt: as §1, §2, §3, §4, §5

[3] = system: field corn (Zea mays L., var. Dekalb 535, CORN); assay: Greenhouse herbicide screen, pre-emerge application, crop damage rating; conditions: PRE emergent, 14 days after application, rating scale 0-100
Excerpt: as §1, §2, §3, §4, §5

[4] = system: upland rice (Oryza sp., var.Cocodrie, RICE); assay: as above; conditions: PRE emergent, 14 days after application, rating scale 0-100
Excerpt: as §1, §2, §3, §4, §5

[5] = system: johnsongrass (Sorghum halepense, SORHA); assay: Greenhouse herbicide screen, post-emerge application, phytotoxicity rating; conditions: POST emergent, 14 days after application, scale 0-100
Procedure, shortened: (§6)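 Acetone-dissolved compounds are sprayed over pots at 15 to 1000 g ai/ha with a flat fan nozzle 40–45 cm above the target. Pre-emerge pots are top-watered immediately to incorporate; post-emerge pots are bottom-watered. Plants are rated 0–100 after 14 days.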

[6] = system: lambsquarters (Chenopodium album, CHEAL); assay: as above; conditions: POST emergent, 14 days after application, scale 0-100
Procedure, shortened: as §6

[7] = system: green foxtail (Setaria viridis, SETVI); assay: as above; conditions: POST emergent, 14 days after application, scale 0-100
Procedure, shortened: as §6

[8] = system: velvetleaf (Abutilon theophrasti, ABUTH); assay: as above; conditions: POST emergent, 14 days after application, scale 0-100
Procedure, shortened: as §6

[9] = system: large crabgrass (Digitaria sanguinalis, DIGSA); assay: as above; conditions: POST emergent, 14 days after application, scale 0-100
Procedure, shortened: as §6

[10] = system: common ragweed (Ambrosia artemisiifolia L., AMBEL); assay: as above; conditions: POST emergent, 14 days after application, scale 0-100
Procedure, shortened: as §6

[11] = system: barnyardgrass (Echinochloa crus-galli, ECHCG); assay: as above; conditions: POST emergent, 14 days after application, scale 0-100
Procedure, shortened: as §6

[12] = system: redroot pigweed (Amaranthus retrofiexus, AMARE); assay: as above; conditions: POST emergent, 14 days after application
Procedure, shortened: as §6

[13] = system: sicklepod (Cassia obtusifolia, CASOB); assay: as above; conditions: POST emergent, 14 days after application, scale 0-100
Procedure, shortened: as §6

[14] = system: ivyleaf morningglory (Ipomoea hederacea, IPOHE); assay: as above; conditions: POST emergent, 14 days after application, scale 0-100
Procedure, shortened: as §6

[15] = system: cocklebur (Xanthium strumarium, XANST); assay: as above; conditions: POST emergent, 14 days after application, scale 0-100
Procedure, shortened: as §6

[16] = system: johnsongrass (Sorghum halepense, SORHA); assay: Greenhouse herbicide screen, pre-emerge application, phytotoxicity rating; conditions: PRE emergent, 14 days after application, rating scale 0-100
Procedure, shortened: as §6

[17] = system: lambsquarters (Chenopodium album, CHEAL); assay: as above; conditions: PRE emergent, 14 days after application, rating scale 0-100
Procedure, shortened: as §6

[18] = system: green foxtail (Setaria viridis, SETVI); assay: as above; conditions: PRE emergent, 14 days after application, rating scale 0-100
Procedure, shortened: as §6

[19] = system: velvetleaf (Abutilon theophrasti, ABUTH); assay: as above; conditions: PRE emergent, 14 days after application, rating scale 0-100
Procedure, shortened: as §6

[20] = system: large crabgrass (Digitaria sanguinalis, DIGSA); assay: as above; conditions: PRE emergent, 14 days after application, rating scale 0-100
Procedure, shortened: as §6

[21] = system: common ragweed (Ambrosia artemisiifolia L., AMBEL); assay: as above; conditions: PRE emergent, 14 days after application, rating scale 0-100
Procedure, shortened: as §6

[22] = system: barnyardgrass (Echinochloa crus-galli, ECHCG); assay: as above; conditions: PRE emergent, 14 days after application, rating scale 0-100
Procedure, shortened: as §6

[23] = system: redroot pigweed (Amaranthus retrofiexus, AMARE); assay: as above; conditions: PRE emergent, 14 days after application, rating scale 0-100
Procedure, shortened: as §6

[24] = system: sicklepod (Cassia obtusifolia, CASOB); assay: as above; conditions: PRE emergent, 14 days after application, rating scale 0-100
Procedure, shortened: as §6

[25] = system: ivyleaf morningglory (Ipomoea hederacea, IPOHE); assay: as above; conditions: PRE emergent, 14 days after application, rating scale 0-100
Procedure, shortened: as §6

[26] = system: cocklebur (Xanthium strumarium, XANST); assay: as above; conditions: PRE emergent, 14 days after application, rating scale 0-100
Procedure, shortened: as §6

Cn1c(C(F)(F)F)cc(=O)n(-c2cc(C(=O)NN(Cc3ccccc3)Cc3ccccc3)c(Cl)cc2F)c1=O [Compound 1-29]
75: phytotoxicity rating AMBEL ([10]; 63 g ai/ha) | phytotoxicity rating AMBEL ([21]; 63 g ai/ha)
0: crop damage rating RICE ([2]; 63 g ai/ha) | crop damage rating RICE ([4]; 63 g ai/ha) | phytotoxicity rating XANST ([15]; 63 g ai/ha) | phytotoxicity rating XANST ([26]; 63 g ai/ha)
50: crop damage rating CORN ([1]; 250 g ai/ha) | crop damage rating CORN ([3]; 250 g ai/ha) | phytotoxicity rating CASOB ([13]; 63 g ai/ha) | phytotoxicity rating CASOB ([24]; 63 g ai/ha)
90: phytotoxicity rating IPOHE ([14]; 63 g ai/ha) | phytotoxicity rating XANST ([15]; 250 g ai/ha) | phytotoxicity rating IPOHE ([25]; 63 g ai/ha) | phytotoxicity rating XANST ([26]; 250 g ai/ha)
100: phytotoxicity rating SORHA ([5]; 250 g ai/ha) | phytotoxicity rating CHEAL ([6]; 63 g ai/ha) | phytotoxicity rating CHEAL ([6]; 250 g ai/ha) | phytotoxicity rating SETVI ([7]; 250 g ai/ha) | phytotoxicity rating ABUTH ([8]; 63 g ai/ha) | phytotoxicity rating ABUTH ([8]; 250 g ai/ha) | phytotoxicity rating DIGSA ([9]; 250 g ai/ha) | phytotoxicity rating AMBEL ([10]; 250 g ai/ha) | phytotoxicity rating ECHCO ([11]; 250 g ai/ha) | phytotoxicity rating AMARE ([12]; 63 g ai/ha, scale 0-100 (0 no damage, 100 complete death)) | phytotoxicity rating AMARE ([12]; 250 g ai/ha, scale 0-100) | phytotoxicity rating CASOB ([13]; 250 g ai/ha) | phytotoxicity rating IPOHE ([14]; 250 g ai/ha) | phytotoxicity rating SORHA ([16]; 250 g ai/ha) | phytotoxicity rating CHEAL ([17]; 63 g ai/ha) | phytotoxicity rating CHEAL ([17]; 250 g ai/ha) | phytotoxicity rating SETVI ([18]; 250 g ai/ha) | phytotoxicity rating ABUTH ([19]; 63 g ai/ha) | phytotoxicity rating ABUTH ([19]; 250 g ai/ha) | phytotoxicity rating DIGSA ([20]; 250 g ai/ha) | phytotoxicity rating AMBEL ([21]; 250 g ai/ha) | phytotoxicity rating ECHCG ([22]; 250 g ai/ha) | phytotoxicity rating AMARE ([23]; 63 g ai/ha) | phytotoxicity rating AMARE ([23]; 250 g ai/ha) | phytotoxicity rating CASOB ([24]; 250 g ai/ha) | phytotoxicity rating IPOHE ([25]; 250 g ai/ha)
55: phytotoxicity rating ECHCO ([11]; 63 g ai/ha) | phytotoxicity rating ECHCG ([22]; 63 g ai/ha)
10: crop damage rating CORN ([1]; 63 g ai/ha) | crop damage rating RICE ([2]; 250 g ai/ha) | crop damage rating CORN ([3]; 63 g ai/ha) | crop damage rating RICE ([4]; 250 g ai/ha)
85: phytotoxicity rating DIGSA ([9]; 63 g ai/ha) | phytotoxicity rating DIGSA ([20]; 63 g ai/ha)
99: phytotoxicity rating SORHA ([5]; 63 g ai/ha) | phytotoxicity rating SETVI ([7]; 63 g ai/ha) | phytotoxicity rating SORHA ([16]; 63 g ai/ha) | phytotoxicity rating SETVI ([18]; 63 g ai/ha)
